Test results from patent publication US20210045385A1, “PYRIDAZINONE-SUBSTITUTED KETOXIMES AS HERBICIDES” (FMC Corporation, priority 2018, published 2021).

Columns and labels:
Type in all cases: in vivo
[1] = tested on: Italian ryegrass (Lolium multiflorum); test: Test A preemergence, visual plant response rating; conditions: for Ryegrass, Italian plant response rating: preemergence, 0 to 100 scale, 0 no effect, 100 complete control; for Ryegrass, Italian plant response rating (0 to 100 scale): 500 g ai/ha Preemergence, approx. 10 days
Procedure, shortened: (§1)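 Compared with untreated controls, treated plants received a visual injury score on a 0–100 scale around 10 days after application. The compound, in a non-phytotoxic solvent with surfactant, was given as a preemergence soil spray or postemergence at the one- to two-leaf stage.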

[2] = tested on: barnyardgrass (Echinochloa crus-galli); test: Test A preemergence, visual plant response rating; conditions: for Barnyardgrass plant response rating: preemergence, 0 to 100 scale, 0 no effect, 100 complete control; for Barnyardgrass plant response rating (0 to 100 scale): 500 g ai/ha Preemergence, approx. 10 days
Procedure, shortened: as §1

[3] = tested on: foxtail, giant (giant foxtail, Setaria faberii); test: Test A preemergence, visual plant response rating; conditions: for Foxtail, Giant plant response rating: preemergence, 0 to 100 scale, 0 no effect, 100 complete control; for Foxtail, Giant plant response rating (0 to 100 scale): 500 g ai/ha Preemergence, approx. 10 days
Procedure, shortened: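 Ratings 0–100 (100 = complete control), visual, vs untreated controls at ~10 days. Application pre- or postemergence; solvent mixture with surfactant; loam/sand medium.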

[4] = tested on: kochia (Kochia scoparia); test: Test A preemergence, visual plant response rating; conditions: for Kochia plant response rating: preemergence, 0 to 100 scale, 0 no effect, 100 complete control; for Kochia plant response rating (0 to 100 scale): 500 g ai/ha Preemergence, approx. 10 days
Procedure, shortened: as §1

[5] = tested on: pigweed (Amaranthus retroflexus); test: Test A preemergence, visual plant response rating; conditions: for Pigweed plant response rating: preemergence, 0 to 100 scale, 0 no effect, 100 complete control; for Pigweed plant response rating (0 to 100 scale): 500 g ai/ha Preemergence, approx. 10 days
Procedure, shortened: as §1

[6] = tested on: ragweed (common ragweed, Ambrosia elatior); test: Test A preemergence, visual plant response rating; conditions: for Ragweed plant response rating: preemergence, 0 to 100 scale, 0 no effect, 100 complete control; for Ragweed plant response rating (0 to 100 scale): 500 g ai/ha Preemergence, approx. 10 days
Procedure, shortened: as §1

[7] = tested on: Italian ryegrass (Lolium multiflorum); test: Test A postemergence, visual plant response rating; conditions: for Ryegrass, Italian plant response rating: Postemergence, 125 g ai/ha, 0 to 100 scale (0 no effect, 100 complete control)
Text: (§2) Seeds of plant species selected from barnyardgrass (Echinochloa crus-galli), kochia (Kochia scoparia), ragweed (common ragweed, Ambrosia elatior), Italian ryegrass (Lolium multiflorum), foxtail, giant (giant foxtail, Setaria faberii), foxtail, green (green foxtail, Setaria viridis), and pigweed (Amaranthus retroflexus) were planted into a blend of loam soil and sand and treated preemergence with a directed soil spray using test chemicals formulated in a non-phytotoxic solvent mixture which included a surfactant.
(§3) At the same time, plants selected from these weed species and also wheat (Triticum aestivum), corn (Zea mays), blackgrass (Alopecurus myosuroides), and galium (catchweed bedstraw, Galium aparine) were planted in pots containing the same blend of loam soil and sand and treated with postemergence applications of test chemicals formulated in the same manner. Plants ranged in height from 2 to 10 cm and were in the one- to two-leaf stage for the postemergence treatment. Treated plants and untreated controls were maintained in a greenhouse for approximately 10 days, after which time all treated plants were compared to untreated controls and visually evaluated for injury. Plant response ratings, summarized in Table A, are based on a 0 to 100 scale where 0 is no effect and 100 is complete control. A dash (-) response means no test result.

[8] = tested on: barnyardgrass (Echinochloa crus-galli); test: Test A postemergence, visual plant response rating; conditions: for Barnyardgrass plant response rating: Postemergence, 125 g ai/ha, 0 to 100 scale (0 no effect, 100 complete control)
Text: as §2, §3

[9] = tested on: blackgrass (Alopecurus myosuroides); test: Test A postemergence, visual plant response rating; conditions: for Blackgrass plant response rating: Postemergence, 125 g ai/ha, 0 to 100 scale (0 no effect, 100 complete control)
Text: as §2, §3

[10] = tested on: corn (Zea mays); test: Test A postemergence, visual plant response rating; conditions: for Corn plant response rating: Postemergence, 125 g ai/ha, 0 to 100 scale (0 no effect, 100 complete control)
Text: as §2, §3

[11] = tested on: foxtail, giant (giant foxtail, Setaria faberii); test: Test A postemergence, visual plant response rating; conditions: for Foxtail, Giant plant response rating: Postemergence, 125 g ai/ha, 0 to 100 scale (0 no effect, 100 complete control)
Text: as §2, §3

[12] = tested on: galium (catchweed bedstraw, Galium aparine); test: Test A postemergence, visual plant response rating; conditions: for Galium plant response rating: Postemergence, 125 g ai/ha, 0 to 100 scale (0 no effect, 100 complete control)
Text: as §2, §3

[13] = tested on: kochia (Kochia scoparia); test: Test A postemergence, visual plant response rating; conditions: for Kochia plant response rating: Postemergence, 125 g ai/ha, 0 to 100 scale (0 no effect, 100 complete control)
Text: as §2, §3

[14] = tested on: pigweed (Amaranthus retroflexus); test: Test A postemergence, visual plant response rating; conditions: for Pigweed plant response rating: Postemergence, 125 g ai/ha, 0 to 100 scale (0 no effect, 100 complete control)
Text: as §2, §3

[15] = tested on: ragweed (common ragweed, Ambrosia elatior); test: Test A postemergence, visual plant response rating; conditions: for Ragweed plant response rating: Postemergence, 125 g ai/ha, 0 to 100 scale (0 no effect, 100 complete control)
Text: as §2, §3

[16] = tested on: wheat (Triticum aestivum); test: Test A postemergence, visual plant response rating; conditions: for Wheat plant response rating: Postemergence, 125 g ai/ha, 0 to 100 scale (0 no effect, 100 complete control)
Text: as §2, §3

[17] = tested on: barnyardgrass (Echinochloa crus-galli); test: Test B flooded paddy test, visual plant response rating; conditions: 250 g ai/ha, Flood, applied to paddy water, 2-leaf stage, evaluated after 13 to 15 days
Protocol: (§4) Plant species in the flooded paddy test selected from rice (Oryza sativa), sedge, umbrella (small-flower umbrella sedge, Cyperus difformis), ducksalad (Heteranhera limosa), and barnyardgrass (Echinochloa crus-galli) were grown to the 2-leaf stage for testing. At time of treatment, test pots were flooded to 3 cm above the soil surface treated by application of test compounds directly to the paddy water, and then maintained at that water depth for the duration of the test. Treated plants and controls were maintained in a greenhouse for 13 to 15 days, after which time all species were compared to controls and visually evaluated. […] A dash (-) response means no test result.

[18] = tested on: ducksalad (Heteranhera limosa); test: as above; conditions: 250 g ai/ha, Flood, applied to paddy water, 2-leaf stage, evaluated after 13 to 15 days
Protocol: as §4

[19] = tested on: rice (Oryza sativa); test: as above; conditions: 250 g ai/ha, Flood, applied to paddy water, 2-leaf stage, evaluated after 13 to 15 days
Protocol: as §4

[20] = tested on: sedge, umbrella (small-flower umbrella sedge, Cyperus difformis); test: as above; conditions: 250 g ai/ha, Flood, applied to paddy water, 2-leaf stage, evaluated after 13 to 15 days
Protocol: as §4

[21] = 31 g ai/ha Postemergence, approx. 10 days
[22] = 500 g ai/ha, postemergence, 0 is no effect, 100 is complete control

Compound	Ryegrass, Italian plant response rating ([1]; 125 g ai/ha)	Barnyardgrass plant response rating ([2]; 125 g ai/ha)	Foxtail, Giant plant response rating ([3]; 125 g ai/ha)	Kochia plant response rating ([4]; 125 g ai/ha)	Pigweed plant response rating ([5]; 125 g ai/ha)	Ragweed plant response rating ([6]; 125 g ai/ha)	Ryegrass, Italian plant response rating [7]	Barnyardgrass plant response rating [8]	Blackgrass plant response rating [9]	Corn plant response rating [10]	Foxtail, Giant plant response rating [11]	Galium plant response rating [12]	Kochia plant response rating [13]	Pigweed plant response rating [14]	Ragweed plant response rating [15]	Wheat plant response rating [16]	Plant response rating, Barnyardgrass (0 to 100 scale, 0 is no effect, 100 is complete control) [17]	Plant response rating, Ducksalad (0 to 100 scale, 0 is no effect, 100 is complete control) [18]	Plant response rating, Rice (0 to 100 scale, 0 is no effect, 100 is complete control) [19]	Plant response rating, Sedge, Umbrella (0 to 100 scale, 0 is no effect, 100 is complete control) [20]	also measured
CON=C(c1c(OC(C)=O)c(C)nn(C)c1=O)c1cccc2ccccc12 [Compound 120]	10	10	50	10	100	10	30	20	20	0	40	80	30	50	20	0	0	0	0	0	Ryegrass, Italian plant response rating ([1]; 31 g ai/ha): 0; Barnyardgrass plant response rating ([2]; 31 g ai/ha): 0; Foxtail, Giant plant response rating ([3]; 31 g ai/ha): 20; Kochia plant response rating ([4]; 31 g ai/ha): 0; Pigweed plant response rating ([5]; 31 g ai/ha): 60; Ragweed plant response rating ([6]; 31 g ai/ha): 0; Ryegrass, Italian plant response rating (0 to 100 scale) [7, 21]: 0; Barnyardgrass plant response rating (0 to 100 scale) [8, 21]: 0; Blackgrass plant response rating (0 to 100 scale) [9, 21]: 0; Corn plant response rating (0 to 100 scale) [10, 21]: 0; Foxtail, Giant plant response rating (0 to 100 scale) [11, 21]: 0; Galium plant response rating (0 to 100 scale) [12, 21]: 40; Kochia plant response rating (0 to 100 scale) [13, 21]: 10; Pigweed plant response rating (0 to 100 scale) [14, 21]: 30; Ragweed plant response rating (0 to 100 scale) [15, 21]: 0; Wheat plant response rating (0 to 100 scale) [16, 21]: 0
CON=C(c1c(O)c(C)nn(C)c1=O)c1cccc2cc(Br)ccc12 [Compound 96]	30	60	70	20	80	90	80	20	90	10	20	90	60	80	90	0	0	0	0	0	Ryegrass, Italian plant response rating (0 to 100 scale) [1]: 100; Barnyardgrass plant response rating (0 to 100 scale) [2]: 80; Foxtail, Giant plant response rating (0 to 100 scale) [3]: 100; Kochia plant response rating (0 to 100 scale) [4]: 100; Pigweed plant response rating (0 to 100 scale) [5]: 100; Ragweed plant response rating (0 to 100 scale) [6]: 100; Ryegrass, Italian plant response rating (0 to 100 scale) [7, 22]: 80; Barnyardgrass plant response rating (0 to 100 scale) [8, 22]: 30; Blackgrass plant response rating (0 to 100 scale) [9, 22]: 100; Corn plant response rating (0 to 100 scale) [10, 22]: 30; Foxtail, Giant plant response rating (0 to 100 scale) [11, 22]: 70; Galium plant response rating (0 to 100 scale) [12, 22]: 90; Kochia plant response rating (0 to 100 scale) [13, 22]: 80; Pigweed plant response rating (0 to 100 scale) [14, 22]: 90; Ragweed plant response rating (0 to 100 scale) [15, 22]: 100; Wheat plant response rating (0 to 100 scale) [16, 22]: 50
CCc1ccccc1C(=NOC)c1c(O)c(C)nn(C)c1=O [Compound 37]	40	0	30	0	40	10	80	10	60	0	30	80	60	70	60	0	0	0	0	0	Ryegrass, Italian plant response rating (0 to 100 scale) [1]: 60; Barnyardgrass plant response rating (0 to 100 scale) [2]: 20; Foxtail, Giant plant response rating (0 to 100 scale) [3]: 80; Kochia plant response rating (0 to 100 scale) [4]: 80; Pigweed plant response rating (0 to 100 scale) [5]: 90; Ragweed plant response rating (0 to 100 scale) [6]: 80; Ryegrass, Italian plant response rating (0 to 100 scale) [7, 22]: 90; Barnyardgrass plant response rating (0 to 100 scale) [8, 22]: 20; Blackgrass plant response rating (0 to 100 scale) [9, 22]: 80; Corn plant response rating (0 to 100 scale) [10, 22]: 30; Foxtail, Giant plant response rating (0 to 100 scale) [11, 22]: 70; Galium plant response rating (0 to 100 scale) [12, 22]: 90; Kochia plant response rating (0 to 100 scale) [13, 22]: 80; Pigweed plant response rating (0 to 100 scale) [14, 22]: 90; Ragweed plant response rating (0 to 100 scale) [15, 22]: 80; Wheat plant response rating (0 to 100 scale) [16, 22]: 10
CCCc1ccccc1/C(=N\OC)c1c(O)c(C)nn(C)c1=O [Compound 92]	40	30	70	0	30	20	50	20	20	0	50	70	30	60	60	0	0	0	0	0	Ryegrass, Italian plant response rating (0 to 100 scale) [1]: 80; Barnyardgrass plant response rating (0 to 100 scale) [2]: 60; Foxtail, Giant plant response rating (0 to 100 scale) [3]: 80; Kochia plant response rating (0 to 100 scale) [4]: 10; Pigweed plant response rating (0 to 100 scale) [5]: 90; Ragweed plant response rating (0 to 100 scale) [6]: 30; Ryegrass, Italian plant response rating (0 to 100 scale) [7, 22]: 60; Barnyardgrass plant response rating (0 to 100 scale) [8, 22]: 40; Blackgrass plant response rating (0 to 100 scale) [9, 22]: 70; Corn plant response rating (0 to 100 scale) [10, 22]: 10; Foxtail, Giant plant response rating (0 to 100 scale) [11, 22]: 60; Galium plant response rating (0 to 100 scale) [12, 22]: 70; Kochia plant response rating (0 to 100 scale) [13, 22]: 60; Pigweed plant response rating (0 to 100 scale) [14, 22]: 80; Ragweed plant response rating (0 to 100 scale) [15, 22]: 70; Wheat plant response rating (0 to 100 scale) [16, 22]: 0
